In ChEMBL document CHEMBL5154860 (J Med Chem, 2022):

Experiments:
in vivo [1] = conditions: Sprague-Dawley, rat, brain / plasma, iv, 0.2 mg/kg
in vivo [2] = conditions: Sprague-Dawley, rat, brain / plasma, iv, 0.2 mg/kg; remark: listed apart in the source
in vitro [3] = conditions: human, liver microsomes
in vitro [4] = conditions: dog, MDCK-MDR1
in vivo [5] = conditions: Sprague-Dawley, rat, po, 10 mg/kg
in vitro [6] = conditions: Sprague-Dawley, rat, liver microsomes
in vivo [7] = conditions: Sprague-Dawley, rat, iv, 1 mg/kg
in vivo [8] = conditions: Sprague-Dawley, rat, po, 10 mg/kg; remark: listed apart in the source
in vivo [9] = conditions: Sprague-Dawley, rat, po, 10 mg/kg; remark: listed apart in the source
in vivo [10] = conditions: Sprague-Dawley, rat, iv, 1 mg/kg; remark: listed apart in the source
in vivo [11] = conditions: Sprague-Dawley, rat, po, 10 mg/kg; remark: listed apart in the source
in vivo [12] = conditions: Sprague-Dawley, rat, iv, 1 mg/kg; remark: listed apart in the source
in vivo [13] = conditions: Sprague-Dawley, rat, iv, 1 mg/kg; remark: listed apart in the source
in vivo [14] = conditions: Sprague-Dawley, rat, iv, 1 mg/kg; remark: listed apart in the source

Cn1ccnc1SCC1CCN(S(=O)(=O)c2ccc3ncsc3c2)CC1
Kp (in vivo [1]): < 0.48
Kp uu (in vivo [2]): < 0.5

Cn1ccnc1SCC1CCN(S(=O)(=O)c2ccc3c(c2)CCO3)CC1
Kp (in vivo [1]): 0.08
Kp uu (in vivo [2]): 0.11
CLint scaled at […], 1 µM (in vitro [3]): 1270 mL/min/kg

O=S(=O)(c1ccc2c(c1)CCO2)N1CCC(CSc2nccs2)CC1
Kp (in vivo [1]): 0.27
Kp uu (in vivo [2]): 0.23

Cc1cn(C)c(SCC2CCN(S(=O)(=O)c3ccc4c(c3)CCO4)CC2)n1
Kp (in vivo [1]): 0.07
Kp uu (in vivo [2]): 0.19

Cc1nc(SCC2CCN(S(=O)(=O)c3ccc4c(c3)CCO4)CC2)n(C)c1C
Kp (in vivo [1]): 0.22
Kp uu (in vivo [2]): 0.32

Cn1ccnc1SCC1CCN(S(=O)(=O)c2ccc3c(c2)OCO3)CC1
Kp (in vivo [1]): 0.53
Kp uu (in vivo [2]): 1.88

Cn1ccnc1SC[C@H]1CCN(S(=O)(=O)c2ccc3c(c2)CCO3)C[C@@H]1F
Papp (in vitro [4]): 26.8 ×10⁻⁶ cm/s
Cmax at 24 h (in vivo [5]): 433 ng/mL
CLint scaled at […], 1 µM (in vitro [6]): 1770 mL/min/kg
clearance at 24 h (in vivo [7]): 56.5 mL/min/kg
AUC at 24 h (in vivo [8]): 830 ng·h/mL
Tmax at 24 h (in vivo [9]): 0.25 h
AUC at 24 h (in vivo [10]): 301 ng·h/mL
bioavailability at 24 h (in vivo [11]): 27.6%
CLint scaled at […], 1 µM (in vitro [3]): 318 mL/min/kg
MRT at 24 h (in vivo [12]): 10.7 h
Vd at 24 h (in vivo [13]): 36.6 L/kg
half-life at 24 h (in vivo [14]): 14.6 h

Cc1nnc(SCC2CCN(S(=O)(=O)c3ccc4c(c3)CCO4)CC2)s1
Kp (in vivo [1]): 1.25
Kp uu (in vivo [2]): 1.1

CC(Sc1nccn1C)C1CCN(S(=O)(=O)c2ccc3c(c2)CCO3)CC1 (centres undefined)
Kp (in vivo [1]): 0.22
Kp uu (in vivo [2]): 0.29
